Results from publication PMC5844530, “Fosmetpantotenate (RE-024), a phosphopantothenate replacement therapy for pantothenate kinase-associated neurodegeneration: Mechanism of action and efficacy in nonclinical models” (PLoS ONE, 2018).
“And” between values parts separate entries of the source, which are not always exact repeats. Equal values may be shown once.

Tests used:
[1] = Pharmacokinetics in whole blood, cynomolgus monkeys; details: blood; for AUC: single PO fosmetpantotenate 300 mg/kg, mean (individual values), N = 2, analyte = label; for Fosmetpantotenate Mean Conc. / Fosmetpantotenate blood concentration, Cyno #1 / Fosmetpantotenate blood concentration, Cyno #2 / concentration at 0.083 h / concentration at 0.167 h / concentration at 0.333 h / concentration at 0.5 h / concentration at 1 h / concentration at 2 h / concentration at 4 h: fosmetpantotenate 300 mg/kg oral; for concentration at 0.083 h / concentration at 0.167 h / concentration at 0.333 h / concentration at 0.5 h / concentration at 1 h / concentration at 2 h / concentration at 4 h: male
[2] = Pharmacokinetics in whole blood, CD-1 mice; details: blood
Experimental: The whole blood samples (0.5 mL) were collected into syringes that were prefilled with 2.5 mL of ice-cold 0.1% formic acid in acetonitrile. The volume ratio of the whole blood to 0.1% formic acid in acetonitrile was 1/5 (v/v). Samples were frozen (-70°C) until analyzed by LC-MS/MS.
Standard curves and quality control (QC) samples were prepared fresh on the day of analysis by serial dilution of the standard mixture in quenched whole blood (1 part of blood to 5 parts of 0.1% formic acid in acetonitrile) and centrifuged. […] The frozen study samples were thawed in an ice/water bath and centrifuged. Supernatant (50 μL) from standards, QC samples, and study samples was transferred to a 96-well plate and dried completely under nitrogen. The dried residues were reconstituted with 100 μL of 0.1% formic acid in water containing internal standard (5 ng/mL of ^15N/^13C3-RE-024-02) and analyzed by LC-MS/MS.
LC-MS/MS analysis for blood pharmacokinetic samples: Samples were analyzed using an Agilent 1100 binary pump (Agilent Technologies, Santa Clara, CA, USA), connected to an AB Sciex API 6500 mass spectrometer (SCIEX, Framingham, MA, USA). An electrospray ionization source was used, scanning in the positive mode. […] The chromatography column was a Varian Metasil AQ 120–5 C18 column, 5 μm, 50 x 2.00 mm (Part No. A0530050X020) at ambient temperature, with a 0.5 mL/min flow rate and a 20 μL injection volume. Mobile phase (A) consisted of 0.1% formic acid in water; while mobile phase (B) consisted of 0.1% formic acid in acetonitrile:water (9:1, v/v).
Quantitation of in vivo samples: Peak areas were integrated using Analyst software (AB Sciex, Concord, Ontario, Canada). […] Calibration standards (at a minimum 7 per curve) were fit by linear regression with (1/x^2) weighting. QC samples were used (triplicate) at 3 concentrations for all tandem mass spectrometry (MS/MS) runs.
Pharmacokinetic calculations: PK analysis was performed using Phoenix WinNonlin®, Build 6.3.0.395 (Certara, Princeton, NJ, USA) using a non-compartmental model (PO dose = model 200 for extravascular dosing). […] Post-dose concentrations below the limit of quantitation (BLQ) were omitted from calculation.

[3] = male cynomolgus monkeys, 0.033 hr
[4] = cynomolgus monkey, in vivo, 300 mg/kg, Fosmetpantotenate Mean Conc., male cynomolgus monkeys
[5] = cynomolgus monkey, in vivo, 300 mg/kg, Fosmetpantotenate blood concentration, Cyno #1, male cynomolgus monkeys
[6] = cynomolgus monkey, in vivo, 300 mg/kg, Fosmetpantotenate blood concentration, Cyno #2, male cynomolgus monkeys

COC(=O)CCNC(=O)[C@H](O)C(C)(C)COP(=O)(N[C@@H](C)C(=O)OC)Oc1ccccc1 (mixture of isomers) [Fosmetpantotenate]
AUC [1]: 34,400 (13000, 55800) nM*h
AUC ([1]; cynomolgus monkey, in vivo, po, 300 mg/kg, AUC): 34 µM·h
Fosmetpantotenate Mean Conc. ([1]; male cynomolgus monkeys, 0 hr): BQL
Fosmetpantotenate blood concentration, Cyno #1 ([1]; male cynomolgus monkeys, 0 hr): BQL
Fosmetpantotenate blood concentration, Cyno #2 ([1]; male cynomolgus monkeys, 0 hr): BQL
Fosmetpantotenate Mean Conc. [1, 3]: BQL
Fosmetpantotenate blood concentration, Cyno #1 [1, 3]: BQL
Fosmetpantotenate blood concentration, Cyno #2 [1, 3]: BQL
Fosmetpantotenate Mean Conc. ([1]; male cynomolgus monkeys, 8 hr): BQL
Fosmetpantotenate blood concentration, Cyno #1 ([1]; male cynomolgus monkeys, 8 hr): BQL
Fosmetpantotenate blood concentration, Cyno #2 ([1]; male cynomolgus monkeys, 8 hr): BQL
concentration at 0.083 h [1, 4]: 197 nM
concentration at 0.167 h [1, 4]: 906 nM
concentration at 0.333 h [1, 4]: 550 nM
concentration at 0.5 h [1, 4]: 376 nM
concentration at 1 h [1, 4]: 18700 nM
concentration at 2 h [1, 4]: 13200 nM
concentration at 4 h [1, 4]: 249 nM
concentration at 0.083 h [1, 5]: 41.9 nM
concentration at 0.167 h [1, 5]: 93.8 nM
concentration at 0.333 h [1, 5]: 128 nM
concentration at 0.5 h [1, 5]: 211 nM
concentration at 1 h [1, 5]: 9950 nM
concentration at 2 h [1, 5]: 3460 nM
concentration at 4 h [1, 5]: 231 nM
concentration at 0.083 h [1, 6]: 351 nM
concentration at 0.167 h [1, 6]: 1720 nM
concentration at 0.333 h [1, 6]: 972 nM
concentration at 0.5 h [1, 6]: 541 nM
concentration at 1 h [1, 6]: 27400 nM
concentration at 2 h [1, 6]: 22900 nM
concentration at 4 h [1, 6]: 267 nM
Conc. ([2]; fosmetpantotenate 100 mg/kg PO, 0.033 hr, individual animals): 6.22 nM and BQL and 218.78 ^(a) nM and 9.40 nM
Conc. ([2]; fosmetpantotenate 100 mg/kg PO, 0.083 hr, individual animals): BQL and 1.94 nM
Conc. ([2]; fosmetpantotenate 100 mg/kg PO, 0.167 hr, individual animals): BQL and 2.30 nM
Conc. ([2]; fosmetpantotenate 100 mg/kg PO, 0.333 hr, individual animals): 2.38 nM and 1.98 nM
Conc. ([2]; fosmetpantotenate 100 mg/kg PO, 0.5 hr, individual animals): BQL and 1.43 nM
Conc. ([2]; fosmetpantotenate 100 mg/kg PO, 1 hr, individual animals): BQL and 1.77 nM
Conc. ([2]; fosmetpantotenate 100 mg/kg PO, 2 hr, individual animals): BQL
Mean Conc. ([2]; fosmetpantotenate 100 mg/kg PO, 4 hr): BQL
Conc. ([2]; fosmetpantotenate 100 mg/kg PO, 4 hr, individual animals): BQL
Mean Conc. ([2]; fosmetpantotenate 100 mg/kg PO, 8 hr): BQL
Conc. ([2]; fosmetpantotenate 100 mg/kg PO, 8 hr, individual animals): BQL
Conc. ([2]; fosmetpantotenate 300 mg/kg PO, 0.033 hr, individual animals): 1.41 nM and 49.95 nM and 66.65 nM and 2.76 nM
Conc. ([2]; fosmetpantotenate 300 mg/kg PO, 0.083 hr, individual animals): 5.50 nM and 4.59 nM and 18.72 nM and 28.96 nM
Conc. ([2]; fosmetpantotenate 300 mg/kg PO, 0.167 hr, individual animals): 1.62 nM and 1.56 nM and 3.71 nM and BQL
Conc. ([2]; fosmetpantotenate 300 mg/kg PO, 0.333 hr, individual animals): 1.22 nM and 1.07 nM and 1.14 nM
Conc. ([2]; fosmetpantotenate 300 mg/kg PO, 0.5 hr, individual animals): 1.14 nM and 1.24 nM
Conc. ([2]; fosmetpantotenate 300 mg/kg PO, 1 hr, individual animals): BQL
Mean Conc. ([2]; fosmetpantotenate 300 mg/kg PO, 2 hr): BQL
Conc. ([2]; fosmetpantotenate 300 mg/kg PO, 2 hr, individual animals): BQL
Conc. ([2]; fosmetpantotenate 300 mg/kg PO, 4 hr, individual animals): BQL
Mean Conc. ([2]; fosmetpantotenate 300 mg/kg PO, 8 hr): BQL
Conc. ([2]; fosmetpantotenate 300 mg/kg PO, 8 hr, individual animals): BQL
Fosmetpantotenate Conc. ([2]; male CD-1 mice, fosmetpantotenate 700 mg/kg oral, 0.033 hr, individual animals, BQL <1.02 nM): 61.71 nM and 230.17 nM and 51.34 nM and 195.45 nM
Fosmetpantotenate Conc. ([2]; male CD-1 mice, fosmetpantotenate 700 mg/kg oral, 0.083 hr, individual animals, BQL <1.02 nM): 24.28 nM and 3756.01(a) nM and 8.28 nM and 16.06 nM
Fosmetpantotenate Conc. ([2]; male CD-1 mice, fosmetpantotenate 700 mg/kg oral, 0.167 hr, individual animals, BQL <1.02 nM): 575.42 nM and 158.08 nM and 6.93 nM and 488.15 nM
Fosmetpantotenate Conc. ([2]; male CD-1 mice, fosmetpantotenate 700 mg/kg oral, 0.333 hr, individual animals, BQL <1.02 nM): 22.76 nM
Fosmetpantotenate Conc. ([2]; male CD-1 mice, fosmetpantotenate 700 mg/kg oral, 0.5 hr, individual animals, BQL <1.02 nM): 3.33 nM and 21.75 nM and 6.47 nM and 283.28 nM
Fosmetpantotenate Conc. ([2]; male CD-1 mice, fosmetpantotenate 700 mg/kg oral, 1 hr, individual animals, BQL <1.02 nM): 128.99 nM and 6.41 nM and 3.33 nM and 67.53 nM
Fosmetpantotenate Conc. ([2]; male CD-1 mice, fosmetpantotenate 700 mg/kg oral, 2 hr, individual animals, BQL <1.02 nM): 1.29 nM and 1.18 nM and 1.64 nM and 16.31 nM
Fosmetpantotenate Conc. ([2]; male CD-1 mice, fosmetpantotenate 700 mg/kg oral, 4 hr, individual animals, BQL <1.02 nM): BQL
Fosmetpantotenate Conc. ([2]; male CD-1 mice, fosmetpantotenate 700 mg/kg oral, 8 hr, individual animals, BQL <1.02 nM): BQL
Fosmetpantotenate Mean Conc. ([2]; male CD-1 mice, fosmetpantotenate 700 mg/kg oral, 8 hr, mean, BQL <1.02 nM): BQL
concentration at 0.083 h ([2]; male, CD-1, mouse, in vivo, 100 mg/kg, Conc., fosmetpantotenate 100 mg/kg PO, 0.083 hr, individual animals): 2 nM
concentration at 0.167 h ([2]; male, CD-1, mouse, in vivo, 100 mg/kg, Conc., fosmetpantotenate 100 mg/kg PO, 0.167 hr, individual animals): 1.31 nM
concentration at 0.333 h ([2]; male, CD-1, mouse, in vivo, 100 mg/kg, Conc., fosmetpantotenate 100 mg/kg PO, 0.333 hr, individual animals): 1.31 nM
concentration at 0.5 h ([2]; male, CD-1, mouse, in vivo, 100 mg/kg, Conc., fosmetpantotenate 100 mg/kg PO, 0.5 hr, individual animals): 1.35 nM
concentration at 1 h ([2]; male, CD-1, mouse, in vivo, 100 mg/kg, Conc., fosmetpantotenate 100 mg/kg PO, 1 hr, individual animals): 1.26 nM
concentration at 2 h ([2]; male, CD-1, mouse, in vivo, 100 mg/kg, Conc., fosmetpantotenate 100 mg/kg PO, 2 hr, individual animals): 2.97 nM
concentration at 0.033 h ([2]; male, CD-1, mouse, in vivo, 100 mg/kg, Mean Conc., fosmetpantotenate 100 mg/kg PO, 0.033 hr): 7.81 nM
concentration at 0.083 h ([2]; male, CD-1, mouse, in vivo, 100 mg/kg, Mean Conc., fosmetpantotenate 100 mg/kg PO, 0.083 hr): 1.97 nM
concentration at 0.167 h ([2]; male, CD-1, mouse, in vivo, 100 mg/kg, Mean Conc., fosmetpantotenate 100 mg/kg PO, 0.167 hr): 1.8 nM
concentration at 0.333 h ([2]; male, CD-1, mouse, in vivo, 100 mg/kg, Mean Conc., fosmetpantotenate 100 mg/kg PO, 0.333 hr): 1.74 nM
concentration at 0.5 h ([2]; male, CD-1, mouse, in vivo, 100 mg/kg, Mean Conc., fosmetpantotenate 100 mg/kg PO, 0.5 hr): 1.39 nM
concentration at 1 h ([2]; male, CD-1, mouse, in vivo, 100 mg/kg, Mean Conc., fosmetpantotenate 100 mg/kg PO, 1 hr): 1.52 nM
concentration at 2 h ([2]; male, CD-1, mouse, in vivo, 100 mg/kg, Mean Conc., fosmetpantotenate 100 mg/kg PO, 2 hr): 2.97 nM
concentration at 0.333 h ([2]; male, CD-1, mouse, in vivo, 300 mg/kg, Conc., fosmetpantotenate 300 mg/kg PO, 0.333 hr, individual animals): 1.43 nM
concentration at 0.5 h ([2]; male, CD-1, mouse, in vivo, 300 mg/kg, Conc., fosmetpantotenate 300 mg/kg PO, 0.5 hr, individual animals): 1.83 nM
concentration at 1 h ([2]; male, CD-1, mouse, in vivo, 300 mg/kg, Conc., fosmetpantotenate 300 mg/kg PO, 1 hr, individual animals): 1.14 nM
